From patent publication US8299074B2, “P38 MAP kinase inhibitors” (RespiVert Ltd., priority 2008, dated 2012)
Read-outs that look alike come from different tables or passages of the source.

Key:
[1] = tested on: Differentiated U937 cells; assay: MTT assay (cell viability); type: cell-based, human
Experimental: MTT Assay Differentiated U937 cells were pre-incubated with compound for 4 hrs in 5% FCS or 10% FCS for 24 hrs. […] After 1 hr incubation, the media were removed, 200 ul of DMSO added to each well and the plates were shaken lightly for 1 h prior to reading the absorbance at 550 nm. The percentage loss of cell viability was calculated for each well relative to vehicle (0.5% DMSO)-treatment. Consequently an apparent increase in cell viability for drug treatment relative to vehicle is tabulated as a negative percentage.

U937 cells [2] = assay: LPS-induced IL-8 release in U937 cells; type: cell-based; settings: Homo sapiens, read-out: DU937 (LPS) IL-8 IC50
Experimental: (§1) LPS-Induced TNF Alpha/IL-8 Release in U937 Cells: Potency U937 cells, human monocytic cell line, were differentiated to macrophage-type cells by incubation with phorbol myristate acetate (PMA; 100 ng/ml) for 48 to 72 hours. Cells were pre-incubated with final concentrations of compound for 2 hrs. […] Coli: O111:B4, Sigma) for 4 hrs, and the supernatant collected for determination of TNFα and IL-8 concentration by sandwich ELISA (Duo-set, R&D systems). […] The inhibition of IL-8 production was calculated at each concentration of test compound by comparison with vehicle control.

BEAS2B cells = assay: Poly I:C-induced ICAM-1 induction in BEAS2B cells; type: cell-based; settings: Homo sapiens, BEAS-2B, read-out: BEAS2B (polyIC) ICAM1 IC50
Experimental: Poly I:C-Induced ICAM-1 Induction in BEAS2B Cells: Potency Poly I:C (1 ug/ml) (Invivogen Ltd., San Diego, Calif.) was transfected into BEAS2B cells (human bronchial epithelial cells, ATCC) with Oligofectamine (Invitrogen, Carlsbad, Calif.). Cells were pre-incubated with final concentrations of compound for 2 hrs. The level of ICAM1 expression on the cell surface was determined by cell-based ELISA. Briefly, at 18 hrs after poly I:C transfection, cells were fixed with 4% formaldehyde in PBS. After quenching endogenous peroxidase by adding 0.1% sodium azide and 1% hydrogen peroxide, cells were washed with wash-buffer (0.1% Tween in PBS: PBS-Tween). After blocking the wells with 5% milk in PBS-Tween for 1 hr, the cells were incubated with anti-human ICAM-1 antibody (Cell Signaling Technology, Danvers, Mass.) in 1% BSA PBS overnight at 4° C. Cells were washed with PBS-Tween and incubated with the secondary antibody (HRP-conjugated anti-rabbit IgG, Dako Ltd., Glostrup, Denmark). The ICAM-1 signal was detected by adding substrate and reading at 450 nm with a reference wavelength of 655 nm using a spectrophotometer. […] The measured OD 450-655 readings were corrected for cell number by dividing with the OD595 reading in each well.

U937 cells [3] = assay: LPS-induced TNF alpha release in U937 cells; type: cell-based
Experimental: as §1

THP-1 cells = assay: LPS-induced TNF alpha release in THP-1 cells; type: cell-based; settings: Homo sapiens
Experimental: LPS-Induced TNF Alpha Release in THP-1 Cells: Potency […] Coli; O111:B4, Sigma) for 4 hr and the supernatant collected for determination of TNFα concentration by sandwich ELISA (Duo-set, R&D systems). The inhibition of TNFα production was calculated at each concentration by comparison with vehicle control.

p38 MAPK alpha (MAPK14) = molecular target: T1, p38 MAPK alpha (MAPK14) (Homo sapiens, UniProt Q16539); assay: Enzyme inhibition assay, p38 MAPK alpha (FRET, Z-LYTE, via MAPKAP-K2); type: biochemical; settings: read-out: Enzyme p38α IC50
T1 construct: purchased Invitrogen

[4] = Table 2, loss of cell viability, test conducted at 10 μg/ml
[5] = Homo sapiens, read-out: DU937 (LPS) TNFα REC50
[6] = THP-1, read-out: THP-1 (LPS) TNFα IC50
[7] = Homo sapiens; read-out: DU937 (LPS) TNFα REC50
[8] = THP-1, Table 2, read-out: THP-1 (LPS) TNFα IC50
[9] = Table 2, loss of cell viability at 1 μg/ml
[10] = Table 3, first MTT column, loss of cell viability at 1 μg/ml
[11] = Table 3, second MTT column, loss of cell viability at 1 μg/ml
[12] = THP-1, Table 3, read-out: THP-1 (LPS) TNFα IC50

T1 sequence (Q16539 whole entry): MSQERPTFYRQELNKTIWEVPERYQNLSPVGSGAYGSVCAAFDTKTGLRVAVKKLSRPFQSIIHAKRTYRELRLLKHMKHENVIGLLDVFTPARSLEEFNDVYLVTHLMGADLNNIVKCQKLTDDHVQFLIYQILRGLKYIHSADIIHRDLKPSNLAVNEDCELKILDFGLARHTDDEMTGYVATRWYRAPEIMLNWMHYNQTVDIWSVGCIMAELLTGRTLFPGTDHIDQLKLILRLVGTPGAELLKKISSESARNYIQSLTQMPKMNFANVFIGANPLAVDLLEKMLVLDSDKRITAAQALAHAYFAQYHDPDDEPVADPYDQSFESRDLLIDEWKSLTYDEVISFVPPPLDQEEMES

SMILES	DU937 (cell viability) MTT assay 4 h [1, 4]	DU937 (cell viability) MTT assay 24 h [1, 4]	IC50 (U937 cells [2]; Table 2)	IC50 (BEAS2B cells; Table 2)	EC50 (U937 cells [3]; [7])	IC50 (THP-1 cells; [8])	DU937 (cell viability) MTT assay 4 h [1, 10]	DU937 (cell viability) MTT assay 4 h [1, 11]	further results
COCCOCC(=O)Nc1cc(Oc2ccc(NC(=O)Nc3cc(C(C)(C)C)nn3-c3ccc(C)cc3)c3ccccc23)ccn1 [Example 1, N-(4-(4-(3-(3-tert-Butyl-1-p-tolyl-1H-pyrazol-5-yl)ureido)naphthalen-1-yloxy)pyridin-2-yl)-2-(2-methoxyethoxy)acetamide]	−^$ (<=30%)	+^$ (>30%)	–	–	–	–	–	–	IC50 (U937 cells [2]): < 5000 nM; IC50 (BEAS2B cells): < 5000 nM; EC50 (U937 cells [3]; [5]): < 10 nM; IC50 (THP-1 cells; [6]): < 10 nM
Cc1ccc(-n2nc(C(C)(C)C)cc2NC(=O)Nc2ccc(Oc3ccnc(NC(=O)C4CCOCC4)c3)c3ccccc23)cc1 [Example 2, N-(4-(4-(3-(3-tert-Butyl-1-p-tolyl-1H-pyrazol-5-yl)ureido)naphthalen-1-yloxy)pyridin-2-yl)tetrahydro-2H-pyran-4-carboxamide]	−^$ (<=30%)	+^$ (>30%)	< 10 nM	< 10 nM	< 5000 nM	< 10 nM	–	–	–
CSCC(=O)Nc1cc(Oc2ccc(NC(=O)Nc3cc(C(C)(C)C)nn3-c3ccc(C)cc3)c3ccccc23)ccn1 [Example 3, N-(4-(4-(3-(3-tert-Butyl-1-p-tolyl-1H-pyrazol-5-yl)ureido)naphthalen-1-yloxy)pyridin-2-yl)-2-(methylthio)acetamide]	−^$ (<=30%)	+^$ (>30%)	< 10 nM	< 5000 nM	< 5000 nM	< 10 nM	–	–	–
COCCC(=O)Nc1cc(Oc2ccc(NC(=O)Nc3cc(C(C)(C)C)nn3-c3ccc(C)cc3)c3ccccc23)ccn1 [Example 4, N-(4-(4-(3-(3-tert-Butyl-1-p-tolyl-1H-pyrazol-5-yl)ureido)naphthalen-1-yloxy)pyridin-2-yl)-3-methoxypropanamide]	−^$ (<=30%)	+^$ (>30%)	< 10 nM	< 10 nM	< 10 nM	< 10 nM	–	–	–
Cc1ccc(-n2nc(C(C)(C)C)cc2NC(=O)Nc2ccc(Oc3ccnc(NC(=O)CO)c3)c3ccccc23)cc1 [Example 5, N-(4-(4-(3-(3-tert-Butyl-1-p-tolyl-1H-pyrazol-5-yl)ureido)naphthalen-1-yloxy)pyridin-2-yl)-2-hydroxyacetamide]	+^$ (>30%)	+^$ (>30%)	< 10 nM	< 10 nM	< 10 nM	< 10 nM	–	–	IC50 (p38 MAPK alpha (MAPK14); Table 2): < 5000 nM
COCC(=O)Nc1cc(Oc2ccc(NC(=O)Nc3cc(C(C)(C)C)nn3-c3ccc(C)cc3)c3ccccc23)ccn1 [Example 8, N-(4-(4-(3-(3-tert-Butyl-1-p-tolyl-1H-pyrazol-5-yl)ureido)naphthalen-1-yloxy)pyridin-2-yl)-2-methoxyacetamide]	–	–	< 10 nM	< 10 nM	< 10 nM	< 5000 nM	–	–	DU937 (cell viability) MTT assay 4 h [1, 9]: − (<=30%); DU937 (cell viability) MTT assay 24 h [1, 9]: + (>30%)
[2H]c1c([2H])c(C([2H])([2H])[2H])c([2H])c([2H])c1-n1nc(C(C)(C)C)cc1NC(=O)Nc1ccc(Oc2ccnc(NC(=O)COC)c2)c2ccccc12 [Example 10, N-(4-(4-(3-(3-tert-butyl-1-(2,3,5,6-tetradeutero-4-(trideuteromethyl)phenyl)-1H-pyrazol-5-yl)ureido)naphthalen-1-yloxy)pyridin-2-yl)-2-methoxyacetamide]	–	–	< 10 nM	< 10 nM	< 10 nM	< 10 nM	–	–	DU937 (cell viability) MTT assay 4 h [1, 9]: − (<=30%); DU937 (cell viability) MTT assay 24 h [1, 9]: + (>30%)
COCC(=O)Nc1cc(Oc2ccc(NC(=O)Nc3cc(C(C)(C)C)nn3-c3ccc(C)cc3)c(C)c2)ccn1 [Example 24, N-(4-(4-(3-(3-tert-Butyl-1-p-tolyl-1H-pyrazol-5-yl)ureido)-3-methylphenoxy)pyridin-2-yl)-2-methoxyacetamide]	–	–	< 10 nM	–	< 10 nM	< 10 nM	–	–	DU937 (cell viability) MTT assay 4 h [1, 9]: − (<=30%); DU937 (cell viability) MTT assay 24 h [1, 9]: + (>30%); IC50 (p38 MAPK alpha (MAPK14); Table 2): < 5000 nM
Cc1ccc(-n2nc(C(C)(C)C)cc2NC(=O)Nc2ccc(Oc3ccnc(NC(=O)NC4CC4)c3)c3ccccc23)cc1 [Example 33, 1-(4-((2-(3-Cyclopropylureido)pyridin-4-yl)oxy)naphthalen-1-yl)-3-(3-(tert-butyl)-1-(p-tolyl)-1H-pyrazol-5-yl)urea]	–	–	–	–	< 10 nM	–	− (<=30%)	− (<=30%)	IC50 (p38 MAPK alpha (MAPK14); Table 3): < 5000 nM; IC50 (BEAS2B cells; Table 3): < 5000 nM; IC50 (THP-1 cells; [12]): < 10 nM
COCCOCC(=O)N1CCC(NC(=O)Nc2cc(Oc3ccc(NC(=O)Nc4cc(C(C)(C)C)nn4-c4ccc(C)cc4)c4ccccc34)ccn2)CC1 [Example 40, 2-(2-Methoxyethoxy)-1-(4-(3-(4-(4-(3-(3-tert-butyl-1-p-tolyl-1H-pyrazol-5-yl)ureido)naphthalen-1-yloxy)pyridin-2-yl)ureido)piperidin-1-yl)ethanone]	–	–	–	–	–	–	− (<=30%)	+ (>30%)	IC50 (U937 cells [2]): < 10 nM; IC50 (BEAS2B cells): < 10 nM; EC50 (U937 cells [3]; [5]): < 10 nM; IC50 (THP-1 cells; [6]): < 10 nM
Cc1ccc(-n2nc(C(C)(C)C)cc2NC(=O)Nc2ccc(Oc3ccnc(NC(=O)NC4CCN(S(C)(=O)=O)CC4)c3)c3ccccc23)cc1 [Example 41, N-Methylsulfonyl-4-(3-(4-(4-(3-(3-tert-butyl-1-p-tolyl-1H-pyrazol-5-yl)ureido)naphthalen-1-yloxy)pyridin-2-yl)ureido)piperidine]	–	–	–	–	< 5000 nM	–	− (<=30%)	+ (>30%)	IC50 (p38 MAPK alpha (MAPK14); Table 3): < 10 nM; IC50 (U937 cells [2]; Table 3): < 5000 nM; IC50 (THP-1 cells; [12]): < 10 nM
Cc1ccc(-n2nc(C(C)(C)C)cc2NC(=O)Nc2ccc(Oc3ccnc(NC(=O)NCC(=O)N4CCOCC4)c3)c3ccccc23)cc1 [Example 58, 2-(3-(4-(4-(3-(3-tert-Butyl-1-p-tolyl-1H-pyrazol-5-yl)ureido)naphthalen-1-yloxy)pyridin-2-yl)ureido)acetyl morpholine]	–	–	–	–	–	–	− (<=30%)	− (<=30%)	IC50 (p38 MAPK alpha (MAPK14); Table 3): < 10 nM; IC50 (U937 cells [2]; Table 3): < 10 nM; IC50 (BEAS2B cells; Table 3): < 10 nM; IC50 (THP-1 cells; [12]): < 10 nM
Cc1ccc(-n2nc(C(C)(C)C)cc2NC(=O)Nc2ccc(Oc3ccnc(NC(=O)NC4CC4)n3)c3ccccc23)cc1 [Example 69, 1-Cyclopropyl-3-(4-(4-(3-(3-tert-butyl-1-p-tolyl-1H-pyrazol-5-yl)ureido)naphthalen-1-yloxy)pyrimidin-2-yl)urea]	–	–	–	–	< 10 nM	–	–	–	DU937 (cell viability) MTT assay 4 h ([1]; Table 1, MTT, loss of cell viability at 1 μg/ml): − (<=30%); DU937 (cell viability) MTT assay 4 h ([1]; Table 1, first MTT column, loss of cell viability at 1 μg/ml): − (<=30%); IC50 (p38 MAPK alpha (MAPK14); Table 1): < 10 nM; IC50 (U937 cells [2]; Table 1): < 10 nM; IC50 (THP-1 cells; THP-1, Table 1, read-out: THP-1 (LPS) TNFα IC50): < 5000 nM
